Patent US9266868B2, “Crystalline form of rivaroxaban dihydrate” (SANDOZ AG, priority 2010, dated 2016)

Legend:
[1] = cited from earlier work; for solubility (in words): WO 2007/039132, CHMP assessment report EMEA/H/C/000944
[2] = Polymorphic stability of Rivaroxaban dihydrate on storage (infrared spectroscopy); assay type: physicochemical; details: about 25° C., relative humidity of about 76%, 6 weeks
Protocol: Infrared spectra (IR) were collected on a MKII Golden Gate™ Single Reflection Diamond ATR (attenuated total reflection) cell with a Bruker Tensor 27 FTIR spectrometer with 4 cm-1 resolution at ambient conditions. To collect a spectrum a spatula tip of a sample was applied to the surface of the diamond in powder form. Then the sample was pressed onto the diamond with a sapphire anvil and the spectrum was recorded. A spectrum of the clean diamond was used as background spectrum. A typical precision of the wavenumber values is in the range of about ±2 cm-1. Thus, an infrared peak that appears at 1716 cm-1 can appear between 1714 and 1718 cm-1 on most infrared spectrometers under standard conditions. […]

[3] = Moisture desorption isotherm / exposure to low relative humidity; assay type: physicochemical; details: for relative humidity at which the dihydrate converts to an anhydrate form: 25° C., FIG. 7
Protocol: The moisture desorption isotherm were recorded with a SPS-11 moisture sorption analyzer (MD Messtechnik, Ulm, and D). The measurement cycle was performed by a decrease relative humidity (RH) in 10% steps. The equilibrium condition for each step was set to a mass constancy of ±0.001% over 50 min. The temperature was 25° C.±01° C.

O=C(NC[C@H]1CN(c2ccc(N3CCOCC3=O)cc2)C(=O)O1)c1ccc(Cl)s1 [Modification II]
higher solubility compared to modification I ([1]; described in WO 2007/039132): 4 fold

O=C(NC[C@H]1CN(c2ccc(N3CCOCC3=O)cc2)C(=O)O1)c1ccc(Cl)s1 [crystalline dihydrate of Rivaroxaban, Rivaroxaban Dihydrate]
polymorphic stability on storage ([2]; listed as Rivaroxaban Dihydrate): polymorphic stable | polymorphic stability on storage ([2]; listed as crystalline dihydrate): does not convert to other polymorphic forms | relative humidity at which the dihydrate converts to an anhydrate form [3]: less than 20% | relative humidity at which the dihydrate converts to an anhydrate form ([3]; listed as dihydrate of Rivaroxaban): about 25% | exposure time to low relative humidity sufficient for transformation into anhydrate form ([3]; less than 20% relative humidity): about one

O=C(NC[C@H]1CN(c2ccc(N3CCOCC3=O)cc2)C(=O)O1)c1ccc(Cl)s1 [Form I of Rivaroxabin, 5-Chloro-N-({(5S)-2-oxo-3-[4-(3-oxomorpholin-4-yl]phenyl)-1,3-oxazolidin-5-yl}methyl)thiophene-2-carboxamide]
solubility (in words) [1]: relatively low solubility

O=C(NC[C@H]1CN(c2ccc(N3CCOCC3=O)cc2)C(=O)O1)c1ccc(Cl)s1 [amorphous form]
solubility (in words) [1]: higher solubility in comparison to modification I

O=C(NC[C@H]1CN(c2ccc(N3CCOCC3=O)cc2)C(=O)O1)c1ccc(Cl)s1.O=CO [formic acid solvate of Rivaroxaban, Rivaroxaban.Formic Acid Solvate]
stability on storage at low relative humidity (less than about 20% relative humidity at 25° C.): stable | behaviour on storage at higher relative humidity (relative humidity of more than 20%, e.g. 30%, 60% or 97%): formic acid is lost and the dihydrate of Rivaroxaban is formed | behaviour on suspending in aqueous medium (suspended in aqueous medium): pure dihydrate of Rivaroxaban is formed
